A short description of data set [1]: Cytochrome P-450 inhibition (ethoxycoumarin-O-deethylase activity, phenobarbital-induced microsomes). The following applies: rat.
Data set [2] deals with cynomolgus monkeys. The data set is described as follows: CNS activity / oral toxicity in cynomolgus monkeys. The following applies: cynomolgus monkey, in vivo. The method, then: Additional monkeys tolerated repeated doses of 45 mg/kg or 30 mg/kg and one animal tolerated an escalating dose schedule of 30-90-120 mg/kg.
The two monkeys administered 400 mg/kg were repeatedly administered this dose for 7 consecutive days; each animal experienced emesis within 1 to 5 hours of dosing after the 1st, 3rd and 4th doses, whereas only the female experienced emesis after the 5th, 6th and 7th doses. A complete necropsy, serum clinical chemistry, hematology and histological examination was completed on both monkeys.

A short description of data set [3]: Log D determination by high pressure liquid chromatography. The format is physicochemical. The following applies: hplc ods, mobile phase MeOH:H2O, pH 7.4, read-out: (Log D) (Lipophilicity). On the procedure: The procedure used to determine the log D's listed on Table VI was as follows. A 20 »l sample was injected into a Shandon Hypersil ODS, 5» (100 mm x 4.6 mm ID) column and was eluted using a mobile phase of […] MeOH:H₂O (The aqueous portion was .01 M in KH₂PO₄ and adjusted to pH 7.4 with KOH after mixing the MeOH), at a flow rate of 2 ml per minute. Eluting peaks were detected by UV absorbance at […]. All samples were made up at 0.1 mg/ml. (Retentions were identical at 0.01 mg/ml.)
The data was analyzed by determining the regression line corresponding to the log k′ vs. literature log P of the reference standards.
The reference standards and their literature log P's included NaNO₂, 0.0; acetanalide, 1.16; acetophenone, 1.66; anisole, 2.08; chlorobenzene, 2.84; benzophenone, 3.18; anthracene, 4.45; and pentachlorobenzene, 5.12.

The test system of data set [4] is cynomolgus monkeys. The data set is described as follows: CNS activity / oral toxicity in cynomolgus monkeys. The data set is classed as in vivo.
Data set [5] concerns arachidonic acid-induced edema in mice. The data set is described as follows: Arachidonic acid-induced mouse ear inflammation (ear swelling). The format is in vivo, male Balb/c mice. The settings on record: mouse, po; read-out: AAEE(MOUSE ED50 mg/kg (po)). The method, then: In the tests used to determine activity as 5-lipoxygenase pathway inhibitors, male Balb/c mice (20-28 g), were used. All mice were obtained from Charles River Breeding Laboratories, Kingston, N.Y. Within a single experiment, mice were age matched.
Reagents were employed as follows: Compounds of Formula (I) were each used as the free base. The compounds were homogenized in 0.5% tragacanth. Compounds were administered by […] at the indicated dose in a final volume of 10 ml/kg.
Arachidonic acid in acetone (2 mg/20 »l) was applied to the inner surface of the left ear. The thickness of both ears was then measured with a dial micrometer one hour after treatment, and the data were expressed as the change in thickness (10⁻³ cm) between treated and untreated ears.
Test compounds were given orally in acid/saline at the times indicated in the text prior to the topical application of arachidonic acid.
Dermatol., 82, 367-371 (1984)].

Setting [6] is: cynomolgus monkey, in vivo, po, 60 mg/kg.

Bounds are passed on as bounds.

Turning to `[O-][S+]1CCn2c1nc(-c1ccc(F)cc1)c2-c1ccncc1` (stereo not drawn) [B, 5-(4-pyridyl)-6-(4-fluorophenyl)-2,3-dihydroimidazo [2,1-b]thiazole oxide, reference compound], the IC50 in data set [1] (liver microsomes) was found to be 5000 nM. In addition, the “CNS toxicity / adverse CNS effects (comparative statement)” value in the data set on cynomolgus monkeys [2] is “reduced CNS toxicity”. The chromatographic logD in data set [3] was found to be 1.2.
For `COc1ccc(-c2nc3n(c2-c2ccncc2)CCC3)cc1` [Compound C, 2-(4-methoxyphenyl)-3-(4-pyridyl)-6,7-dihydro-[5H]-pyrrolo[1,2-a]imidazole], the clinical effects entry was “sedation, loss of consciousness and death of one (male)” in the data set with cynomolgus monkeys [4] (setting [6]); “death of both animals” in the data set with cynomolgus monkeys [4] (cynomolgus monkey, in vivo, po, 90 mg/kg); “caused convulsions and death” in the data set with cynomolgus monkeys [4] (single oral dose of 90 mg/kg, 1 female, 1 male, 90 mg/kg). The “time of death after dosing” value with cynomolgus monkeys [4] (setting [6]) is ≤ 1 h. This compound showed an IC50 in data set [1] (liver microsomes) of 21400 nM. The ED50 in data set [5] is 28 mg/kg. For the same compound, the “Adverse CNS activity” value in the data set on cynomolgus monkeys [2] is “+++”. In addition, in data set [3], the chromatographic logD turned out to be 2.14.
For the compound `Fc1ccc(-c2nc3n(c2-c2ccncc2)CCS3)cc1` [Compound A, 5-(4-pyridyl)-6-(4-fluorophenyl)-2,3-dihydroimidazo[2,1-b]thiazole], in the data set with cynomolgus monkeys [4] (cynomolgus monkey, in vivo, 90 mg/kg), the “time of death after dosing” value was 1 to 5 h. Besides, in the data set on cynomolgus monkeys [4] (oral 90 mg/kg/day, two consecutive days, 1 female, 1 male, 90 mg/kg/day), the clinical effects entry was “caused convulsions and death”. Besides, the IC50 in data set [1] (liver microsomes) was 600 nM; in data set [1] (microsomes) it was 900 nM. Besides, the ED50 in data set [5] worked out at 27 mg/kg. Further, in the data set on cynomolgus monkeys [2], the “Adverse CNS activity” value is “+++”. Further, the chromatographic logD in data set [3] turned out to be 2.19.

By IC50 is commonly meant the point on the concentration scale where inhibition reaches its midpoint. Low values mean higher potency, high ones lower potency.

The values are drawn from patent EP0306300B1, “Pyrrolo(1,2-a)imidazole and imidazo(1,2-a)pyridine derivatives and their use as 5-lipoxygenase pathway inhibitors” (SMITHKLINE BEECHAM CORPORATION, priority 1987, dated 1989).
